From US20190059368A1, “3,5-DIMETHOXYSTILBENE ANALOGS AND USES THEREOF” (The United States of America, as represented by the …, priority 2017, published 2019)
In brackets after ≈: the same amount, converted by molar mass. Where two headings read alike, the source gives them in different places. Marks after values point to notes of the source that are not given here.

Columns and labels:
C. gloeosporioides = test: Direct bioautography, antifungal; format: cell-based, Colletotrichum gloeosporioides; details: Colletotrichum gloeosporioides; 2 mM; 4 μl spotted (2 μl of the positive controls); average of 2 assays; read-out: zones of inhibition
Description: (§1) The analogs were tested for activity against Colletotrichum acutatum SIMMONDS, C. fragariae BROOKS, and C. gloeosporioides (PENZ) PENZ & SACC. in Penz., using a direct bioautography method as previously described by Tabanca et al. (Nat. Prod. Commun. 2008, 3, 1073) and Wang, et al. (J. Agric. Food Chem. 2013, 61, 4551). Technical grade commercial fungicide standards benomyl, cyprodinil, azoxystrobin, and captan were used at 0.9-1.61 μg/μl concentrations in 95% EtOH. After sample application, each TLC plate was subsequently sprayed with a spore suspension (3.0×10^5 spores/ml) of the fungus of interest and incubated in a moisture chamber for 4 days at 26° C. with a 12 hour photoperiod. Clear zones of fungal growth inhibition on the TLC plate indicated the presence of antifungal constituents in each extract or pure compound. The test compounds were prepared at 2 mM soln. in 95% EtOH, and 4 μl were spotted on the plates (2 μl of the positive controls).

Colletotrichum species = test: Direct bioautography, antifungal (overall statement); format: cell-based, Colletotrichum sp.
Description: as §1

C. fragariae = test: Direct bioautography, antifungal; format: cell-based, Colletotrichum fragariae; details: Colletotrichum fragariae; 2 mM; 4 μl spotted (2 μl of the positive controls); average of 2 assays; read-out: zones of inhibition
Description: as §1

Colletotrichum acutatum = test: Direct bioautography, antifungal; format: cell-based; details: Colletotrichum acutatum; 2 mM; 4 μl spotted (2 μl of the positive controls); average of 2 assays; read-out: zones of inhibition
Description: as §1

[1] = system: Mycobacterium intracellulare ATCC 23068; test: Antimicrobial microplate assay (modified CLSI, AlamarBlue); format: cell-based; details: ATCC23068, My. intracellulare
Description: (§2) All organisms were obtained from the American Type Culture Collection (ATCC; Manassas, Va., USA) and included the fungi Cryptococcus neoformans ATCC 90113 and the bacteria Staphylococcus aureus ATCC 29213, methicillin-resistant S. aureus ATCC 33591 (MRSA), and Mycobacterium intracellulare ATCC 23068. All organisms were tested using modified versions of the CLSI (formerly NCCLS) methods. For all organisms excluding My. intracellulare, optical density was used to monitor growth. Medium supplemented with 5% AlamarBlue® (BioSource International, Camarillo, Calif., USA) was utilized for growth detection of My. intracellulare. Samples (dissolved in DMSO) were serially diluted in 20% DMSO/saline and transferred (10 μl) in duplicate to 96-well flat-bottom microplates. Inocula were prepared by correcting the OD630 of microbe suspensions in Sabouraud Dextrose for Cr. neoformans, cation-adjusted Mueller-Hinton (Difco) at pH 7.3 for Staphylococcus spp., and 5% AlamarBlue® (BioSource International) in Middlebrook 7H9 broth with OADC enrichment, pH=7.0 for My. intracellulare, to afford an assay volume of 200 μl and final target inocula of: Cr. neoformans.: b 1.5×10^3, My. intracellulare: 2.0×10^6, and Staphylococcus spp.,: 5.0×10^5 CFU/ml. Final sample test concentrations were 1/100th the DMSO stock concentration. […] All organisms were read at either 530 nm using the Biotek Powerwave XS plate reader (Bio-Tek Instruments, VT) or 544ex1590em (My. intracellulare) using the Polarstar Galaxy Plate Reader (BMG LabTechnologies, Germany) before and after incubation: Staphylococcus spp. at 35° C. for 16-20 h, Cr. neoformans at 35° C. for 70-74 h, and My. intracellulare at 37° C. and 10% CO2 for 70-74 h. IC50 Values (concentrations that afford 50% inhibition relative to controls) werecalculated using XLfit 4.2 software (IDBS, Alameda, Calif.) using fit model 201.

Ae. aegypti larvae = test: Larvicidal bioassay against 1-day-old Ae. aegypti larvae (screening and dose-response); format: in vivo, Aedes aegypti; details: for LC50 (LD50 converted to μM) / LD50 (95% CI) / LD90 (95% CI): 1-day-old larvae; for LC50 (LD50 converted to μM): 24 hours; for LD50 (95% CI) / LD90 (95% CI): mortality 24 hours post-treatment; for larvicidal activity (in words): screening at 100, 50 and 25 ppm
Description: Analogs were screened for activity against Ae. aegypti larvae following a bioassay system described in Ali, A., et al. (J. Med. Entomol. 2014, 51, 824). Ae. aegypti larvae used in these studies were from a laboratory colony maintained at the Mosquito and Fly Research Unit at the Center for Medical, Agricultural and Veterinary Entomology, USDA-ARS, Gainesville, Fla. For larval bioassays, the eggs were hatched and the larvae were maintained at a temperature of 27±2° C. and 60±10% RH with a photoperiod regimen of 12:12 hour (Light:Dark). Five 1-day-old Ae. aegypti larvae were added into a droplet of H2O to each well of 24-well plates (BD Labware, Franklin Lakes, N.J., USA) by use of a disposable 22.5-cm Pasteur pipette. A quantity of 50 μl of larval diet (2% slurry of 3:2 beef liver powder (Now Foods, Bloomingdale, Ill., USA) and Brewer's yeast (Lewis Laboratories Ltd., Westport, Conn., USA) was added to each well using a Finnpipette stepper (Thermo Fisher, Vantaa, Finland). All chemicals tested were diluted in DMSO. A quantity of 11 μl of the test chemical was added to the labeled wells, while 11 μl of DMSO was added to control treatments. After the treatment application, the plates were swirled in clockwise and counterclockwise motions and front and back and side to side five times to ensure even mixing of the chemicals. Larval mortality was recorded 24 hours post-treatment. […] Three dosages, 100, 50, and 25 ppm, were used in the screening bioassay to determine the larvicidal activity and each treatment was replicated twice. […] Each treatment was replicated ten times. LC50 Values for larvicidal data were calculated using SAS, Proc Probit. Control mortality was corrected using the Abbott's formula.

[2] = system: adults of ORL and PR strains of Ae. aegypti; test: Adult mosquito assay, ORL and PR strains; format: in vivo; details: both strains
Description: (§3) Further tests were performed on compounds 11 and 12 to determine their effect on larvae and adult mosquitoes. The compounds were tested in the standard bioassays using the Orlando (ORL), pesticide-susceptible strain and the Puerto Rico (PR), pyrethroid-resistant strain of Ae. aegypti. The ORL strain has been in continuous colony since 1952 with no pesticide exposure while the resistant PR strain was colonized from egg papers collected near San Juan, PR in June, 2012. The PR strain is available as a resistant reference strain through BEIResources/CDC. Mortality was determined in the larval assays at four different concentrations (1, 0.5, 0.25, and 0.1 μg/μl) and three concentrations for adults (6.25%, 3.125%, and 1.56%). Mortality was recorded 24 h post-application, and in all assays, a negative solvent and a positive control using permethrin were utilized; tests were done in triplicate. Assays were conducted according to published procedures as described in Wanner, J. et al. (Curr. Bioact. Compd. 2015, 11, 13).

[3] = system: larvae of ORL and PR strains of Ae. aegypti; format: in vivo; details: for effectiveness against larvae (in words): ORL and PR strains; for Percent Mortality: larvae, 24 h
Description: as §3

[4] = system: methicillin-resistant S. aureus ATCC 33591 (MRSA); test: Antimicrobial microplate assay (modified CLSI); format: cell-based; details: Staphylococcus aureus
Description: as §2

[5] = system: Staphylococcus aureus ATCC 29213; test: Antimicrobial microplate assay (modified CLSI); format: cell-based; details: ATCC29213, S. aureus
Description: as §2

[6] = system: Cryptococcus neoformans ATCC 90113; test: Antimicrobial microplate assay (modified CLSI); format: cell-based; details: Cryptococcus neoformans, ATCC90113; Cr. neoformans
Description: All organisms were obtained from the American Type Culture Collection (ATCC; Manassas, Va., USA) and included the fungi Cryptococcus neoformans ATCC 90113 and the bacteria Staphylococcus aureus ATCC 29213, methicillin-resistant S. aureus ATCC 33591 (MRSA), and Mycobacterium intracellulare ATCC 23068. All organisms were tested using modified versions of the CLSI (formerly NCCLS) methods. For all organisms excluding My. intracellulare, optical density was used to monitor growth. Medium supplemented with 5% AlamarBlue® (BioSource International, Camarillo, Calif., USA) was utilized for growth detection of My. intracellulare. Samples (dissolved in DMSO) were serially diluted in 20% DMSO/saline and transferred (10 μl) in duplicate to 96-well flat-bottom microplates. Inocula were prepared by correcting the OD630 of microbe suspensions in Sabouraud Dextrose for Cr. neoformans, cation-adjusted Mueller-Hinton (Difco) at pH 7.3 for Staphylococcus spp., and 5% AlamarBlue® (BioSource International) in Middlebrook 7H9 broth with OADC enrichment, pH=7.0 for My. intracellulare, to afford an assay volume of 200 μl and final target inocula of: Cr. neoformans.: b 1.5×10^3, My. intracellulare: 2.0×10^6, and Staphylococcus spp.,: 5.0×10^5 CFU/ml. Final sample test concentrations were 1/100th the DMSO stock concentration. Drug controls (Ciprofloxacin (ICN Biomedicals, Ohio, USA) for bacteria and Amphotericin B (ICN Biomedicals) for fungi) were included in each assay. All organisms were read at either 530 nm using the Biotek Powerwave XS plate reader (Bio-Tek Instruments, VT) or 544ex1590em (My. intracellulare) using the Polarstar Galaxy Plate Reader (BMG LabTechnologies, Germany) before and after incubation: Staphylococcus spp. at 35° C. for 16-20 h, Cr. neoformans at 35° C. for 70-74 h, and My. intracellulare at 37° C. and 10% CO2 for 70-74 h. IC50 Values (concentrations that afford 50% inhibition relative to controls) werecalculated using XLfit 4.2 software (IDBS, Alameda, Calif.) using fit model 201.

Compound	zone of inhibition at 2000 µM (C. gloeosporioides) [mm]	inhibitory effect on Colletotrichum species (in words) (Colletotrichum species)	zone of inhibition at 2000 µM (C. fragariae) [mm]	zone of inhibition at 2000 µM (Colletotrichum acutatum) [mm]	IC50 [1] [µM]	MIC [1] [µM]	LC50 (LD50 converted to μM) (Ae. aegypti larvae) [µM]	LD50 (95% CI) (Ae. aegypti larvae)	LD90 (95% CI) (Ae. aegypti larvae) [ppm]	larvicidal activity (in words) (Ae. aegypti larvae)	effectiveness against adult mosquitoes (in words) [2]	effectiveness against larvae (in words) [3]	Percent Mortality ([3]; ORL strain, 0.1 μg/μl) [%]	Percent Mortality ([3]; ORL strain, 0.25 μg/μl) [%]	Percent Mortality ([3]; ORL strain, 0.5 μg/μl) [%]	Percent Mortality ([3]; ORL strain, 1.0 μg/μl) [%]	Percent Mortality ([3]; PR strain, 0.1 μg/μl) [%]	Percent Mortality ([3]; PR strain, 0.25 μg/μl) [%]	Percent Mortality ([3]; PR strain, 0.5 μg/μl) [%]	Percent Mortality ([3]; PR strain, 1.0 μg/μl) [%]	other results
COc1cc(/C=C/c2ccccc2)cc(OC)c1C [Compound 6a, (E)-1,3-dimethoxy-2-methyl-5-styrylbenzene]	5.5	strong inhibitory effect	5	5																	
COc1cc(/C=C\c2ccc(F)cc2)cc(OC)c1C [Compound 7e, (Z)-1,3-dimethoxy-5-(4-fluorostyryl)-2-methylbenzene]	6	strong inhibitory effect	6	6																	
COc1cc(/C=C\c2ccc(O)c(CC=C(C)C)c2)cc(OC)c1 [Compound 12, (Z)-4-(3,5-dimethoxystyryl)-2-(3-methylbut-2-en-1-yl)phenol]					50.4	61.7 (≈ 20 µg/mL)	49.93	16.2^b ppm	37.9	high larvicidal activity	somewhat effective	highly effective	66.7 ± 23.1	93.3 ± 11.5	93.3 ± 11.5	93.3 ± 11.5	73.3 ± 11.5	73.3 ± 11.5	93.3 ± 11.5	93.3 ± 11.5	IC50 [4]: 13 µM; MIC [4]: 30.8 µM (≈ 10 µg/mL); IC50 [5]: 17 µM; MIC [5]: 30.8 µM (≈ 10 µg/mL); IC50 [6]: 41.8 µM; MIC [6]: 61.7 µM (≈ 20 µg/mL)
COc1cc(/C=C/c2ccc(O)c(CC=C(C)C)c2)cc(OC)c1 [Compound 11, (E)-4-(3,5-dimethoxystyryl)-2-(3-methylbut-2-en-1-yl)phenol]					47.2	61.7 (≈ 20 µg/mL)	45.31	14.7^b ppm	34.7	high larvicidal activity	somewhat effective	highly effective	100	100	100	100	93.3 ± 11.5	100	100	100	IC50 [4]: 9.1 µM; MIC [4]: 15.4 µM (≈ 5 µg/mL); IC50 [5]: 13.1 µM; MIC [5]: 30.8 µM (≈ 10 µg/mL); IC50 [6]: 13.6 µM; MIC [6]: 30.8 µM (≈ 10 µg/mL)
